Measured values published in paper PMC11921695 (BMC Cancer, 2025).
Entries after “also recorded” stand apart in the source; their conditions may differ.

Assays:
Ang-2 = assay: Serum angiogenic marker ELISA; format: in vivo, human
Description: (§1) Pharmacodynamic measures were assessed by percentage changes in serum angiogenic markers and correlated with tumour response. The baseline used was that measured at cycle visit 1 day 1 pre-selumetinib treatment. Analysis of longitudinal data was performed using a mixed effects repeated measured regression, with a trend line and 90% CI derived using the fixed effect estimates from the model.
(§2) Circulating angiogenic biomarkers on cycle 1 day 1 pre-treatment, cycle 2 day 1, cycle 3 day 1, cycle 5 day 1 and end of cycle 6 (all ±1 day except cycle 1 day 1 pre-treatment).
(§3) HIV-1 viral load and CD4 counts were measured as per standard of care at hospital sites. To measure the concentration of angiogenesis markers, 8.5 ml blood was collected in BD vacutainer no-additive serum tubes. Samples were kept at room temperature for 30 minutes before centrifugation at 2000 g for 20 minutes at room temperature. Serum samples were then stored at -80 °C prior to analysis. Serum Ang-1, Ang-2 and TIE levels were assessed using commercial ELISAs (Thermo Fisher Scientifc hAng-1 (EHANGPT1), R&D DuoSet Ang-2 (DY623), eBioscience hTIE2 (BMS2042)), according to manufacturer instructions at laboratories at the University of Sheffield.

Ang-1 = assay: Serum angiogenic marker ELISA; format: in vivo, human; details: end of cycles 1, 2, 4 and 6 vs pre-dose cycle 1 day 1; any dose
Description: as §1, §2, §3

Tie-2 = assay: Serum angiogenic marker ELISA; format: in vivo, human; details: end of cycles 1, 2, 4 and 6 vs pre-dose cycle 1 day 1; any dose
Description: as §1, §2, §3

[1] = system: patients with HIV-associated KS; assay: Number of selumetinib cycles completed and reasons for discontinuation; format: in vivo; details: 6/16 participants
From the text: Reasons for discontinuation were reported in relation to the number of cycles received.

Cn1cnc2c(F)c(Nc3ccc(Br)cc3Cl)c(C(=O)NOCCO)cc21 [selumetinib, 6-(4-Bromo-2-chloro-phenylamino)-7-fluro-3-methyl-3 H-benzoimidazole-5-carboxylic acid (2-hydroxy-ethoxy)-amide hydrogen sulphate]
change in circulating level of Ang-2 (Ang-2; end of cycles 1, 2, 4 and 6 vs pre-dose cycle 1 day 1, any dose): no significant changes
serum levels of Ang-2 on treatment compared to baseline (trend) (Ang-2; on selumetinib treatment): tended to be lower
change in circulating level of Ang-1 (Ang-1): no significant changes
change in circulating level of Tie-2 (Tie-2): no significant changes; also recorded: no changes were observed
participants who discontinued selumetinib due to toxicity before completing six cycles [1]: 37.5%
